From patent US12377069B2, “Compounds, compositions, methods of using, and methods for preparing compounds” (UNIVERSITY OF LOUISVILLE RESEARCH FOUNDATION, INC., priority 2018, dated 2025)
Entries after “also recorded” stand apart in the source; their conditions may differ.

What was measured:
C57BL/6N mice = assay: Chronic ALD mouse model; format: in vivo; conditions: 20 mg/kg orally every other day, 4 weeks
Experimental: FIG. 18: UAS03 mitigates chronic ALD. (A) C57BL/6 mice (10 wk old age) were used in chronic ALD models and analyzed after 4 weeks as described. Pair fed (n=5/group) and EtOH fed (n=10/group) mice were treated with Veh (0.25% CMC) and UAS03 (20 mg/kg) alternate day for 4 weeks. (B) Gross images of colons (C) colon lengths (D) In vivo permeability using FITC-Dextran was measured. (E) Serum ALT, AST, endotoxin, IL-6, TNF-α were measured using ELISA methods. (F) H&E sections (20×) of liver are shown. Scale bar is 100 μm. Fat droplets (white) are visible in EtOH group. (G) The levels of triglycerides (TGs), IL-6, TNF-α and myeloperoxidase (MPO) were measured in liver tissues. (H) Immunoblot of Ocln expression in ileum tissues (n=3) from mice fed with EtOH treated with Veh or UAS03. Error bars, ±SEM. Statistics were performed using 2way ANOVA multiple comparisons. * p<0.05, ** p<0.01, *** p<0.001.
Male C57BL/6N (10 week age old) were purchased from Jackson Laboratory and were acclimatized with pair fed liquid diet (Lieber DeCarli) for 1 week. After acclimatization, animals were fed with pair fed (n=5 mice/group) and alcohol diet (n=10 mice/group). Briefly, mice were fed with diet containing 17% of energy as protein, 40% as corn oil, 7.5% as carbohydrate, and 35.5% as either alcohol (5% v/w, alcohol-fed, AF) or isocaloric maltose dextrin (pair-fed, PF). Before mice went on to 5% alcohol diet, alcohol concentration was ramped from 1.6% (3 days) to 3.6% (3 days) and finally 5% for next 4 weeks. UAS03 group animals received UAS03 orally (20 mg/kg/day) on every other day after start of alcohol diet (FIG. 18A). We used 0.25% sodium carboxymethyl cellulose (CMC) as vehicle treatment. The mice were euthanized after 4 weeks and measured colon lengths (FIG. 18B-C), in vivo gut permeability (FITC-dextran assay), serum ALT, AST, endotoxin, IL-6 and TNF-α (FIG. 18E).

human primary monocytes = assay: LPS and EtOH induced TNF-α in human primary monocytes; format: cell-based; conditions: EtOH 25 mM 7 days; LPS 50 ng/ml
Experimental: FIG. 11: UroA reduces the LPS and EtOH induced TNF-α in human primary monocytes. (A) Human primary monocytes treated with UroA and LPS (50 ng/ml) for 6 h. The TNF-α in supernatant was measured. (B) Human primary monocytes were exposed to EtOH (25 mM) for 7 days. LPS (50 ng/ml) and UroA were added at day 6 and incubated for 24 h. The TNF-α levels in supernatant were measured using standard ELISA methods. Statistics performed using unpaired t-test using Graphpad Prism software. Error bars, ±SEM; ***p<0.001; **p<0.01
UroA reduces the LPS and EtOH induced TNF-α in human primary monocytes. Peripheral blood monocytes from chronic alcoholism patients produce increased spontaneous inflammatory mediators such as TNF-α, IL-6, IL-10 and IL-12. To mimic this condition, healthy peripheral blood monocytes were exposed for one week and tested whether UroA/UAS03 reduce the LPS-induced TNF-α.

C57BL/6 mice = assay: Acute (binge) alcohol ALD model; format: in vivo, mouse
Experimental: FIG. 15: UroA treatment reduces binge EtOH-induced ALD. (A) Acute alcohol model: Female wild type (C547BL/6) mice (n=6/group) were oral gavaged with alcohol (5 g/kg) at 0, 12 and 24 h. Mice were treated with Veh (0.25% CMC) or UroA (20 mg/kg) at 2, 14 and 26 h. Mice were euthanized at 32 h. (B) In vivo permeability was measured by determining serum levels of FITC-Dextran post 4 h oral gavage of FITC-dextran (C) Fecal albumin was measured using standard ELISA. (D-I) Indicated serum cytokines/markers levels were measured in serum using standard ELISA. (J) The levels of triglycerides (TGs) in liver were measured using ELISA methods. Error bars, ±SEM. Statistics were performed using 2 way ANOVA multiple comparisons. * p<0.05, ** p<0.01, *** p<0.001.
Treatment with UroA mitigates acute and chronic alcohol liver disease. To examine therapeutic efficacies of UroA in ALD, we adopted acute mouse model as developed by Gao B group (NIAAA) (BERTOLA et al., (2013) “Mouse model of chronic and binge ethanol feeding (the NIAAA model)” Nat Protoc. Vol. 8, No. 3, pp. 627-637). We tested therapeutic efficacies of UroA in this model.

AhR^−/− mice = assay: Acute ALD model in AhR^−/− mice; format: in vivo, mouse; conditions: 20 mg/kg at 2, 14 and 26 h
Experimental: FIG. 19: UroA treatment failed in AhR^−/− mice to protect against binge EtOH-induced ALD. C547BL/6 and AhR^−/− mice (n=4/group) were oral gavaged with alcohol (2.5 g/kg) at 0, 12 and 24 h. Mice were treated with Veh (0.25% CMC) or UroA (20 mg/kg) at 2, 14 and 26 h. Mice were euthanized at 32 h. The Fecal albumin was measured using standard ELISA. Serum endotoxin, TNF-α, ALT as well as liver ALT and TG levels using ELISA methods. Error bars, ±SEM. Statistics were performed using 2way ANOVA multiple comparisons. * p<0.05, ** p<0.01, *** p<0.001.
AhR has a role for UroA mediated protection in ALD model: To address the role of AhR expression for UroA mediated activities, we performed acute ALD models in C57BL/6J mice and AhR^−/− mice. In this experiment, mice (WT, AhR^−/− mice (n=4/group)) were treated with half the dose of EtOH (2.5 g/kg) at 0, 12 and 24 h followed by oral treatment Veh (0.25% CMC) or UroA (20 mg/kg) at 2, 14 and 26 h.

T84 cells = assay: EtOH-induced internalization of junction proteins; format: cell-based; conditions: 50 μM 1 h, then EtOH 40 mM 6 h
Description: The membrane and cytosolic fractions were isolated and evaluated for tight junction (TJ) and adherins junction (AJ) and desmosomes. […] (i.e., EtOH treatment alone has more cytosolic protein and EtOH+UroA has more membrane fraction) (FIG. 20).

[1] = target: T1, breast cancer resistance protein (BCRP) (Homo sapiens, UniProt Q9UNQ0); assay: BCRP drug efflux activity; format: cell-based; conditions: colon cancer cell lines
T1 construct: endogenous in cells
Description: Therefore, blocking its activity and/or downregulating the expression of BCRP, P-gp could reverse the effect and sensitize the cancer cells.

[2] = tested on: colon cancer cell line (SW480); conditions: human

T1 sequence (Q9UNQ0 whole entry): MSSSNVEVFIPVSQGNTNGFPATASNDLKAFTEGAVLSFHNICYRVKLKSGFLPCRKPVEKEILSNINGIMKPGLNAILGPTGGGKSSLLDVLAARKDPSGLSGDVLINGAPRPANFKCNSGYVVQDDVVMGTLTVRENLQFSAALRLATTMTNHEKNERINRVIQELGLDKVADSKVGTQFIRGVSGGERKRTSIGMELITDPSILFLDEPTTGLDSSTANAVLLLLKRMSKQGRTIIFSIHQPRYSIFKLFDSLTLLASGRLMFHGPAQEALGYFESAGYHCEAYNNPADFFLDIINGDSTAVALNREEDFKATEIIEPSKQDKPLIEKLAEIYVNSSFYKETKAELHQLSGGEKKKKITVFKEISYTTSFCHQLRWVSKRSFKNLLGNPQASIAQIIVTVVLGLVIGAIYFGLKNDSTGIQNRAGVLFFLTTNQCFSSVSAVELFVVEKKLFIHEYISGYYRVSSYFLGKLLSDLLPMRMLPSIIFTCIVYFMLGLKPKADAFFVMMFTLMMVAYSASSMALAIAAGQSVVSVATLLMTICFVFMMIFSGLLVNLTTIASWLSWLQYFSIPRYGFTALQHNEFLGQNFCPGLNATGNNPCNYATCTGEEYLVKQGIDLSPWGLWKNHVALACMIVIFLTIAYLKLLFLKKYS

SMILES	deterioration of Ocln in the gut (C57BL/6N mice)	liver fat deposition (histopathology) (C57BL/6N mice)	liver inflammation (IL-6, TNF-α, MPO) and TG levels (C57BL/6N mice)	LPS-induced TNF-α in chronically EtOH exposed human monocytes (human primary monocytes)	TJ protein (ZO-1) disruption at intestines (C57BL/6 mice; 20 mg/kg)	TG accumulation in liver (C57BL/6 mice; 20 mg/kg at 2, 14 and 26 h)	circulating serum ALT, AST levels (C57BL/6 mice; 20 mg/kg at 2, 14 and 26 h)	systemic inflammation (serum IL-6, TNF-α, IL-1β, endotoxins) (C57BL/6 mice; 20 mg/kg at 2, 14 and 26 h)	TG levels in AhR^−/− mice (AhR^−/− mice)	EtOH-induced gut leakage, serum endotoxins, TNF-α, ALT, liver ALT in AhR^−/− mice (AhR^−/− mice; EtOH 2.5 g/kg)	EtOH-induced internalization of membrane junction proteins to cytosol (T84 cells)	BCRP drug efflux activity [1]	cell viability in combination with 5FU [2]
Oc1ccc2c(c1)COc1cc(O)ccc1-2 [UAS03, 6H-benzo[c]chromene-3,8-diol]	protected from deterioration of Ocln	reduced liver fat deposition	down regulated liver inflammation and TG levels										
O=c1oc2cc(O)ccc2c2ccc(O)cc12 [UroA, 3,8-dihydroxy-6H-dibenzo[b,d]pyran-6-one]				reduced	protects against TJ protein (ZO-1) disruption	reduced TG accumulation in liver	reduced	reduced	down regulated TG levels	did not appear to rescue	protected from EtOH-induced internalization	decreased drug efflux activities; also recorded: reduced the BCRP activity	69%
